Experimental data: patent publication US9012446B2, “Amino-oxazines and amino-dihydrothiazine compounds as beta-secretase modulators and methods of use” (Amgen Inc., priority 2010, dated 2015)
Where two headings read alike, the source gives them in different places.

Assays:
BACE = BACE (Homo sapiens, UniProt P56817); assay: In vitro enzymatic BACE FRET assay; assay type: biochemical; conditions: average IC50, enzyme assay; read-out: BACE 1 FRET assay
Procedure, shortened: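 Fluorescence […] after Tris quench reports cleavage of a 50 nM quenched peptide substrate over 1 h. Beforehand, 0.2 nM enzyme sits 1 h with inhibitor dilutions. Buffer: 0.05 M acetate pH 4.2, 100 uM genapol, 10% DMSO final.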

Aβ40 = assay: In vitro BACE cell-based assay (Aβ40 sandwich ELISA, cells stably expressing APP); conditions: Homo sapiens
Procedure, shortened: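 Read-out is Aβ40 in cell supernatants, quantified by sandwich ELISA (capture 3 h, detection 2 h, both 4° C) with Delfia time-resolved fluorescence. Cells stably expressing APP were dosed across 10 concentrations from 100 μM or 10 μM top, 0.1% DMSO final; IC50 fitted from percent of control.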

Abeta 40 = assay: In vivo inhibition of beta-secretase: Abeta 40 reduction in CSF and brain of the rat; conditions: after 4 hrs; for inhibition in vivo at 10 mg/kg: 10 mpk
Text: In Vivo Inhibition of Beta-Secretase
Several animal models, including mouse, rat, dog, and monkey, may be used to screen for inhibition of beta-secretase activity in vivo following administration of a test compound sample. Animals used in this invention can be wild type, transgenic, or gene knockout animals. For example, the Tg2576 mouse model, prepared and conducted as described in Hsiao et al., 1996, Science 274, 99-102, and other non-transgenic or gene knockout animals are useful to analyze in vivo inhibition of Amyloid beta peptide (Abeta) production in the presence of inhibitory test compounds. Generally, 2 to 18 month old Tg2576 mice, gene knockout mice or non-transgenic animals are administered test compounds formulated in vehicles, such as cyclodextran, phosphate buffers, hydroxypropyl methylcellulose or other suitable vehicles. One to twenty-four hours following the administration of compound, animals are sacrificed, and brains as well as cerebrospinal fluid (CSF) and plasma are removed for analysis of A-beta levels and drug or test compound concentrations (Dovey et al., 2001, Journal of Neurochemistry, 76,173-181) Beginning at time 0, animals are administered by oral gavage, or other means of delivery such as intravenous injection, an inhibitory test compound of up to 100 mg/kg in a standard, conventional formulation, such as 2% hydroxypropyl methylcellulose, 1% Tween80. A separate group of animals receive 2% hydroxypropyl methylcellulose, 1% Tween80 alone, containing no test compound, and serve as a vehicle-control group. At the end of the test period, animals are sacrificed and brain tissues, plasma or cerebrospinal fluid are collected. Brains are either homogenized in 10 volumes (w/v) of 0.2% diethylamine (DEA) in 50 mM NaCl (Best et al., 2005, Journal of Pharmacology and Experimental Therapeutics, 313, 902-908), or in 10 volumes of 0.5% TritonX-100 in Tris-buffered saline (pH at about 7.6). Homogenates are centrifuged at 355,000 g, 4° C. for 30 minutes. CSF or brain supernatants are then analyzed for the presence of A-beta peptide by specific sandwich ELISA assays based on ECL (Electrochemiluminescence) technology. For example, rat Abeta40 is measured using biotinylated-4G8 (Signet) as a capture antibody and Fab40 (an in-house antibody specific to the C-terminal of Abeta40) as a detection antibody. For example, 4 hours after administration of 30 mg/kg oral dose of the test compound in 2% hydroxypropyl methylcellulose, 1% Tween80 (pH2.2) to 200 g male Sprague Dawley rats, amyloid beta peptide levels are measured for reduction by X % and Y % in cerebrospinal fluid and brain, respectively, when compared to the levels measured in the vehicle-treated rats. • Actual vehicles used: Oral: 2% HPMC, 1% Tween80, pH 2.2 • IV: 5% EtOH, 45% Propylene glycol in 5% Dextrose
The compounds of the invention may be shown to reduce the formation and/or deposition of amyloid beta peptide in the cerebrospinal fluid (CSF) as well as in the brain of a mouse or rat at either 3 mpk, 10 mpk or 30 mpk (mpk=mg compound per kg weight of the animal) dosing concentrations after 4 hrs.

[1] = HEK293, average IC50, read-out: HEK cell assay
[2] = Abeta 40, rat CSF, read-out: % reduction of rat CSF levels at 10 pmk
[3] = Abeta 40, rat brain, read-out: % reduction of rat brain levels at 10 mpk
[4] = HEK293, average IC50, cell assay, HEK cells

Sequence of BACE (P56817 46-501, species assumed): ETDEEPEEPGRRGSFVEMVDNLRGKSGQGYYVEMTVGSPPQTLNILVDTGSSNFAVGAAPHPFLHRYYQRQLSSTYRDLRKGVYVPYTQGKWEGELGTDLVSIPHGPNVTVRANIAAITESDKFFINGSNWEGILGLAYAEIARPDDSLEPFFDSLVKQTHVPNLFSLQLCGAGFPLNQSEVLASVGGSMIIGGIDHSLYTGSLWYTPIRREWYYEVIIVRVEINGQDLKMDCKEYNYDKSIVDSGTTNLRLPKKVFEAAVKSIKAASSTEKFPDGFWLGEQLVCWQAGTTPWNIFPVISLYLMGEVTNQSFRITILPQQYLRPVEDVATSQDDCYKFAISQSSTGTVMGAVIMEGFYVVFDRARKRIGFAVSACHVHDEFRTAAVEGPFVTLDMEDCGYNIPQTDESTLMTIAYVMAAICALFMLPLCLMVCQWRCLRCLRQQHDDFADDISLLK

Structure (SMILES) | IC50 (BACE) [nM] | IC50 (Aβ40; [1]) [nM] | IC50 (Aβ40; [4]) [nM] | inhibition in vivo at 10 mg/kg (Abeta 40; [2]) [%] | inhibition in vivo at 10 mg/kg (Abeta 40; [3]) [%] | % reduction of rat CSF levels (Abeta 40; Abeta 40, rat CSF) [% at 3 mpk] | % reduction of rat brain levels (Abeta 40; Abeta 40, rat brain) [% at 3 mpk]
NC1=N[C@@]2(COC1)c1cc(-c3cncc(F)c3)ccc1Oc1cnc(N3CCC(F)(F)C3)cc12 [Example 122, (S)-3-(3,3-difluoropyrrolidin-1-yl)-7-(5-fluoropyridin-3-yl)-2′,6′-dihydrospiro[chromeno[2,3-c]pyridine-5,3′-[1,4]oxazin]-5′-amine] | 0.6 |  | 0.3 |  |  | 11 | 14
NC1=N[C@@]2(COC1)c1cc(-c3cccnc3F)ccc1Oc1cnc(-c3ccc(F)c(F)c3)cc12 [Example 73, (5S)-3-(3,4-difluorophenyl)-7-(2-fluoro-3-pyridinyl)-6′H-spiro[chromeno[2,3-c]pyridine-5,3′-[1,4]oxazin]-5′-amine] | 0.3 |  | 2.7 | 62 | 42 |  | 
NC1=N[C@@]2(COC1)c1cc(-c3cncc(F)c3)ccc1Oc1cnc(-c3ccc(F)c(F)c3)cc12 [Example 114, (S)-3-(3,4-difluorophenyl)-7-(5-fluoropyridin-3-yl)-2′,6′-dihydrospiro[chromeno[2,3-c]pyridine-5,3′-[1,4]oxazin]-5′-amine] | 0.4 |  | 2.3 | 54 | 34 |  | 
NC1=N[C@@]2(COC1)c1cc(-c3cccnc3F)ccc1Oc1cnc(-c3ccnc(F)c3)cc12 [Example 30, (S)-7-(2-fluoropyridin-3-yl)-3-(2-fluoropyridin-4-yl)-2′,6′-dihydrospiro[chromeno[2,3-c]pyridine-5,3′-[1,4]oxazin]-5′-amine] | 0.3 |  | 1.7 | 67 | 62 |  | 
NC1=N[C@@]2(COC1)c1cc(-c3cccnc3)ccc1Oc1cnc(-c3ccc(F)c(F)c3)cc12 [Example 115, (S)-3-(3,4-difluorophenyl)-7-(pyridin-3-yl)-2′,6′-dihydrospiro[chromeno[2,3-c]pyridine-5,3′-[1,4]oxazin]-5′-amine] | 0.4 |  | 1.6 | 38 | 21 |  | 
CC(C)(C#N)COc1cc2c(cn1)Oc1ccc(-c3cccc(F)c3)cc1[C@@]21COCC(N)=N1 [Example 126, (S)-3-(5′-amino-7-(3-fluorophenyl)-2′,6′-dihydrospiro[chromeno[2,3-c]pyridine-5,3′-[1,4]oxazine]-3-yloxy)-2,2-dimethylpropanenitrile] | 0.4 |  | 1.5 | 25 | 8 |  | 
CC(C)(C)C#Cc1cnc2c(c1)[C@]1(COCC(N)=N1)c1cc(-c3cccnc3F)ccc1O2 [Example 89, (S)-3-(3,3-dimethylbut-1-yn-1-yl)-7-(2-fluoropyridin-3-yl)-2′,6′-dihydrospiro[chromeno[2,3-b]pyridine-5,3′-[1,4]oxazin]-5′-amine] | 0.7 |  | 0.4 | 50 | 41 |  | 
CC(C)(C)COc1cc2c(cn1)Oc1ccc(-c3cccnc3F)cc1[C@@]21COCC(N)=N1 [Example 33, (S)-7-(2-fluoropyridin-3-yl)-3-(neopentyloxy)-2′,6′-dihydrospiro[chromeno[2,3-c]pyridine-5,3′-[1,4]oxazin]-5′-amine] | 0.4 |  | 1.1 | 61 | 48 |  | 
CC1(C#Cc2cc(F)c3c(c2)[C@]2(COCC(N)=N2)c2cc(-c4cccnc4F)ccc2O3)COC1 [Example 41, (S)-4′-fluoro-7′-(2-fluoropyridin-3-yl)-2′-((3-methyloxetan-3-yl)ethynyl)-2,6-dihydrospiro[[1,4]oxazine-3,9′-xanthen]-5-amine] | 0.5 |  | 1.9 | 13 | 23 |  | 
NC1=N[C@@]2(COC1)c1cc(-c3cccnc3F)ccc1Oc1c(F)cc(N3CCC(F)(F)CC3)cc12 [Example 86, (S)-2′-(4,4-difluoropiperidin-1-yl)-4′-fluoro-7′-(2-fluoropyridin-3-yl)-2,6-dihydrospiro[[1,4]oxazine-3,9′-xanthen]-5-amine] |  |  | 2.6 | 12 | 11 |  | 

Second part, led by results:

IC50 (BACE) [nM] | IC50 (Aβ40; [1]) [nM] | IC50 (Aβ40; [4]) [nM] | Structure (SMILES) | inhibition in vivo at 10 mg/kg (Abeta 40; [2]) [%] | inhibition in vivo at 10 mg/kg (Abeta 40; [3]) [%] | % reduction of rat CSF levels (Abeta 40; Abeta 40, rat CSF) [% at 3 mpk] | % reduction of rat brain levels (Abeta 40; Abeta 40, rat brain) [% at 3 mpk]
4.8 | 6.9 |  | NC1=N[C@@]2(CCO1)c1cc(-c3cccnc3F)ccc1Oc1c(F)cc(N3CCOCC3)cc12 [Example 184, (S)-4′-fluoro-7′-(2-fluoropyridin-3-yl)-2′-morpholino-5,6-dihydrospiro[[1,3]oxazine-4,9′-xanthen]-2-amine] | 19 | 12 |  | 
6.1 | 8.5 |  | CC(C)(F)COc1cc(F)c2c(c1)[C@]1(CCOC(N)=N1)c1cc(-c3cccnc3)ccc1O2 [Example 176, (S)-4′-fluoro-2′-(2-fluoro-2-methylpropoxy)-7′-(pyridin-3-yl)-5,6-dihydrospiro[[1,3]oxazine-4,9′-xanthen]-2-amine] | 30 | 13 |  | 
0.9 |  | 4.9 | NC1=N[C@@]2(COC1)c1cc(-c3cccnc3F)ccc1Oc1c2cc(N2CCC(F)(F)CC2)nc1F [Example 129, (S)-3-(4,4-difluoropiperidin-1-yl)-1-fluoro-7-(2-fluoropyridin-3-yl)-2′,6′-dihydrospiro[chromeno[2,3-c]pyridine-5,3′-[1,4]oxazin]-5′-amine 2,2,2-trifluoroacetate] | 22 | 17 |  | 
1.1 | 2.9 |  | NC1=N[C@@]2(CCO1)c1cc(-c3cccnc3F)ccc1Oc1c(F)cc(C3=CCCOC3)cc12 [Example 173, (S)-2′-(5,6-dihydro-2H-pyran-3-yl)-4′-fluoro-7′-(2-fluoropyridin-3-yl)-5,6-dihydrospiro[[1,3]oxazine-4,9′-xanthen]-2-amine] | 40 | 14 |  | 
6 | 8.2 |  | NC1=N[C@@]2(CCO1)c1cc(-c3cccnc3F)ccc1Oc1c(F)cc(-c3ccncc3)cc12 [Example 166, (S)-4′-fluoro-7′-(2-fluoropyridin-3-yl)-2′-(pyridin-4-yl)-5,6-dihydrospiro[[1,3]oxazine-4,9′-xanthen]-2-amine] | 42 | 25 |  | 
3.5 | 6.3 |  | NC1=N[C@@]2(CCO1)c1cc(-c3cccnc3F)ccc1Oc1c(F)cc(-c3cccnc3)cc12 [Example 168, (S)-4′-fluoro-7′-(2-fluoropyridin-3-yl)-2′-(pyridin-3-yl)-5,6-dihydrospiro[[1,3]oxazine-4,9′-xanthen]-2-amine] | 44 | 18 |  | 
3.1 | 4.9 |  | CC(C)(C)C#Cc1cnc2c(c1)[C@]1(CCOC(N)=N1)c1cc(-c3cccnc3F)ccc1O2 [Example 270, (S)-3-(3,3-dimethylbut-1-ynyl)-7-(2-fluoropyridin-3-yl)-5′,6′-dihydrospiro[chromeno[2,3-b]pyridine-5,4′-[1,3]oxazin]-2′-amine] | 70 | 52 |  | 
